Test results: article PMC12040169 (PLOS Biology, 2025)

Assay: in vitro
Settings: human, hela cells, % viability

| SMILES | viability at 28.5 h, 10 µM [%] |
| --- | --- |
| O=C(NCc1ccc(-c2csnn2)cc1)c1ccco1 [CBK149289] | 89 |
| C=CCn1oc(=O)n(-c2ccc(OC)cc2)c1=O [CBK122773] | 89.4 |
| Cc1ccc(S(=O)(=O)NCC(=O)O)c2nsnc12 [CBK261140] | 93.1 |
| CN(Cc1cccnc1)C(=O)Cc1ccc(-n2cccn2)cc1 [CBK297726] | 85.6 |
| O=C(O)/C=C\C(=O)Nc1ccc(OCC(=O)O)cc1 [CBK264449] | 102 |
| COc1ccc(S(=O)(=O)Nc2c(C(=O)O)sc3ncccc23)cc1OC [CBK049979] | 87.3 |
| CCC(C(=O)N1CCC(O)(c2ccccn2)CC1)c1ccccc1 (stereo not shown) [CBK283768] | 93.1 |
| O=C(Nc1ccc(C(=O)O)cc1)/C(=C\c1ccco1)NC(=O)c1ccccc1Cl [CBK263726] | 113 |
| C#CCNC(=O)[C@H]1O[C@H](CCN2CCOCC2)CC[C@@H]1O [CBK288729] | 102 |
| CC(=O)Nc1c(C#N)cnn1C [CBK046332] | 96 |
| COc1ccccc1-c1cccc(CC2(C(=O)NCCc3ccccc3)CCOCC2)c1 [CBK285593] | 93.6 |
| CNC1CCN(S(=O)(=O)c2sc3ccc(C(C)C)cc3c2C)C1 (stereo not shown) [CBK170067] | 110 |
| O=C(c1ccccc1)c1cccc(OCCOc2nccnc2N2CCNCC2)c1 [CBK014250G] | 96.1 |
| O=C(COc1ccccc1/C=C1/NC(=O)NC1=O)Nc1ccccc1 [CBK264620] | 99.3 |
| O=C(CSc1nnc2ccccn12)Nc1ccccc1 [CBK287328] | 109 |
| COc1nnc(-c2ccc(N3CCOCC3)c(NC(=O)COc3cccc(C)c3)c2)c2ccccc12 [CBK266207] | 81.9 |
| COc1ccc(C(CC(=O)O)NC(=O)c2ccc(Cl)cc2Cl)cc1 (stereo not shown) [CBK269131] | 91.8 |
| COc1cccc(CC(=O)N2CCCC2c2nc3ccccc3[nH]2)c1 (stereo not shown) [CBK283665] | 99.8 |
| CCOC(=O)c1sc2ccc(NC(C)=O)cc2c1C [CBK021052] | 76.8 |
| CN1CCN(c2nc(-c3cccc(F)c3)cnc2N)CC1 [CBK063433] | 100 |
| CCS(=O)(=O)N1CC2CCCC(O)(c3cccc(F)c3)C2C1 (stereo not shown) [CBK283108] | 99.3 |
| Cc1cccc(CC(=O)N2CCC(Cc3ccc(-c4cccc(C)c4)cc3)(C(N)=O)CC2)c1 [CBK285798] | 104 |

| SMILES | viability at 28.5 h, 10 µM [%] |
| --- | --- |
| CCCOc1ccc(C(=O)N2CCN(c3ccccc3)CC2)cc1 [CBK304327] | 90.7 |
| COc1ccc(S(=O)(=O)N2CCC3(CC2)CC(=O)c2ccc(C)cc2O3)cc1OC [CBK166515] | 96.8 |
| O=C(O)CCSc1nnnn1-c1ccccc1 [CBK287217] | 88.4 |
| Cc1cc(Cl)c(S(=O)(=O)N2CCN(c3ccccn3)CC2)cc1OCC(N)=O [CBK266553] | 117 |
| CN(Cc1ccc(-c2ccc(CO)cc2)nc1)C1CCN(C(=O)OC(C)(C)C)CC1 [CBK173453] | 81.3 |
| O=C(c1ccccc1)N1CCCC(c2nccnc2-c2cccc(C(F)(F)F)c2)C1 (stereo not shown) [CBK286218] | 99.9 |
| CC(=O)N1N=C(COc2ccc(C)cc2)OC1c1ccc(Br)cc1 (stereo not shown) [CBK294396] | 103 |
| COC1=CC2CCNC(CCCCC3NCCc4cc(OC)c(OC)cc43)C2C=C1OC (stereo not shown) [CBK013354] | 87 |
| O=C(c1nc(SCc2ccccc2)ncc1Cl)N1CCN(c2cccc(Cl)c2)CC1 [CBK268712] | 113 |
| O=C1N[C@@H]2CCN(C(=O)Cc3ccc(O)cc3)C[C@@H]2C/C=C/CCOc2ccccc21 [CBK292043] | 103 |
| COc1ccc(C(NC(=O)[C@H]2CCCN2C(=O)Cc2cccs2)c2ccccc2C)cn1 (stereo partly shown) [CBK075053] | 87 |
| CC(=O)C(C)Oc1ccccc1-n1cccc1 (stereo not shown) [CBK020334] | 95.9 |
| Cc1cccc(-c2ncc(C(=O)NCCCN3CCCC3=O)cc2-c2ccco2)c1 [CBK037455] | 96.5 |
| C=CCN1C(=O)CC2(C1=O)C(=O)N(C)c1ccccc12 (stereo not shown) [CBK075472] | 99 |
| O=C1[C@@H]2CCCN2C(=O)c2ccccc2N1CCN1CCCC1 [CBK282857] | 96.3 |
| COc1nc(Cl)nc(Oc2ccc(F)cc2)n1 [CBK011279] | 122 |
| Cc1cc(NS(=O)(=O)c2cccc3cccnc23)n(C)n1 [CBK067242] | 89.1 |
| O=C(Nc1sc2c(c1C(=O)NCc1cccnc1)CCCC2)c1ccc(Cl)cc1 [CBK265498] | 88.2 |
| Cn1cc(-c2ccccc2CN2CCCC2)c2onc(-c3ccccc3)c2c1=O [CBK036319C] | 115 |
| O=C(Cc1ccccn1)N1CCCc2ccccc21 [CBK200343] | 105 |
| CCN1c2ccc(-c3cncn3CC(=O)NC(C)(C)C)cc2CC1C (stereo not shown) [CBK281815] | 95.7 |
| CC1=C[C@@H](CNS(=O)(=O)c2ccccc2)[C@H](C(C)C)C[C@H]1CC(=O)N1CCOCC1 [CBK289049] | 79.7 |

| SMILES | viability at 28.5 h, 10 µM [%] |
| --- | --- |
| O=C(C1=C(O)C(=O)N(CCCN2CCOCC2)C1c1cccnc1)c1cc2ccccc2o1 (stereo not shown) [CBK266147] | 104 |
| Cc1cc(=O)oc2cc(NC(=S)NNC(=O)C3CCN(Cc4ccc(F)cc4Cl)CC3)ccc12 [CBK266953] | 99.4 |
| CCN1CCN(C(=O)CN(C)S(=O)(=O)c2ccc(OC)c(C)c2)CC1 [CBK268880] | 110 |
| CCOc1ccc(S(=O)(=O)N2CCSC2c2ccc(OC)c([N+](=O)[O-])c2)cc1 (stereo not shown) [CBK263293] | 101 |
| O=[N+]([O-])c1ccc(S(=O)(=O)NCCc2nc3ccccc3[nH]2)cc1 [CBK261796] | 112 |
| FC(F)(F)Oc1cccc(-c2cn3ccnc3c(NCCc3ccccn3)n2)c1 [CBK038017] | 96.7 |
| COCCNc1nccnc1-c1cnc(OC)nc1OC [CBK088558] | 109 |
| O=C(N[C@H]1COC(=O)N1)OCc1ccccc1 [CBK007606] | 114 |
| CC(=O)Nc1ccc(S(=O)(=O)N2CCN(S(=O)(=O)c3ccccc3[N+](=O)[O-])CC2)cc1 [CBK264314] | 104 |
| CCS(=O)(=O)N1CCc2cc(C(=O)CSc3nnc(-c4ccco4)o3)ccc21 [CBK297126] | 98.3 |
| Cc1ccc(S(=O)(=O)N(CC(=O)NC2CCCC2)Cc2ccccc2)cc1 [CBK263166] | 89.9 |
| CC(Oc1cccc(C#N)c1)C(=O)N1CCCC1C(=O)NCC(F)(F)F (stereo not shown) [CBK305435] | 93.8 |
| CS(=O)(=O)c1ccc(Cn2ccnc(N3CCN(C(=O)Cc4cccs4)CC3)c2=O)cc1 [CBK153773] | 89.9 |
| Cc1ccc(CN2CCCN(C(=O)CCn3cnc4c(cnn4C)c3=O)CC2)cc1 [CBK297793] | 79.8 |
| CCC(CO)Nc1nccnc1-c1ccc(CO)cc1 (stereo not shown) [CBK036607] | 93 |
| O=C(CCN1CCc2ccccc2C1)Nc1ccccc1F [CBK264202] | 94.9 |
| COc1ccc2c(c1)nc1n2CCC1O (stereo not shown) [CBK115449] | 96.9 |
| CCN(CC)CCCNC(=O)N(CCC#N)C1CCCCC1 [CBK156377] | 95 |
| O=C(Cn1nc(-c2cc3c(s2)CCC3)oc1=O)N1CCCC1 [CBK284712] | 90.3 |
| O=C(NCc1cccs1)C1(Cc2ccccc2-c2ccc(F)c(F)c2)CCOCC1 [CBK286417] | 93.2 |
| CC(C)NC(=O)NC1CCCc2nc(N3CCC(CO)CC3)ncc21 (stereo not shown) [CBK307002] | 83.3 |
| COc1ccc(S(=O)(=O)NCCNC(=O)c2cc(Br)cnc2N(C)S(C)(=O)=O)cc1 [CBK076477] | 110 |

| SMILES | viability at 28.5 h, 10 µM [%] |
| --- | --- |
| COc1cc(-c2cn3ccnc3c(N[C@H](CO)C(C)C)n2)cc(OC)c1OC [CBK066220] | 103 |
| COc1ccc(OC(C)(C)C(=O)N2CCCC(c3ccc(Nc4ncccn4)cn3)C2)cc1 (stereo not shown) [CBK285970] | 83.9 |
| COC(=O)CN1CCCC[C@H]2CN(C(=O)C3CCC3)C[C@H]21 [CBK285496] | 103 |
| CC(C)CN1C(=O)COC[C@@H]1[C@H](O)c1ccc(NC(=O)C2CCCCC2)cc1 [CBK289687] | 106 |
| COc1cc(C2c3c(-c4cc(C)c(C)cc4O)n[nH]c3C(=O)N2CCO)cc(Br)c1O (stereo not shown) [CBK269009] | 112 |
| CC[C@H]1CN(C(=O)C(C)(C)C)CC[C@H]1CC(=O)NCc1cccnc1 [CBK289135] | 97.8 |
| CC(C)NC(=O)C[C@@H]1CCNC[C@@H]1Cc1cc(-c2ccccc2)on1 [CBK289147] | 83.7 |
| CN1CCC(C(=O)NC(=O)NCCOc2cccc3ccccc23)CC1 [CBK051100] | 90.1 |
| Nc1ncc(-c2ccccc2CO)nc1Nc1ccc2[nH]ccc2c1 [CBK063843] | 109 |
| Cc1cc(COc2ccnc(N3CCCN(CC4CC4)CC3)n2)no1 [CBK084073] | 91.1 |
| CS(=O)(=O)Nc1cccc(-c2nnn[nH]2)c1 [CBK062150] | 90.4 |
| CC(C)(C)c1ccc(Oc2ccc(NC(=O)CCCC(=O)O)cc2)cc1 [CBK264339] | 103 |
| CC(NCC(=O)N1c2ccccc2NC(=O)CC1C)c1ccc(-c2ccccc2)cc1 (stereo not shown) [CBK295155] | 84.2 |
| O=[N+]([O-])c1ccccc1S(=O)(=O)N1CCN(S(=O)(=O)c2ccc3ccccc3c2)CC1 [CBK264296] | 107 |
| O=C(CSc1ncccc1C(=O)O)Nc1nnc(Cc2ccccc2)s1 [CBK299835] | 97.1 |
| O=C(NCc1ccncc1)c1nn(-c2ncccn2)c2ccccc12 [CBK048498] | 93.1 |
| CC(=O)NCCn1cc2c(n1)[C@H]1CN(C(=O)C(C)C)C[C@H]1CC2 [CBK284571] | 93.3 |
| CO[C@H]1CC[C@H](C(=O)NC(Cc2ccsc2)c2cccnc2)CC1 (stereo partly shown) [CBK285114] | 107 |
| CN(C(=O)OC(C)(C)C)C1CN(C(c2ccccc2)c2ccccc2)C1 [CBK008111] | 89.8 |
| Cc1ccn(-c2ccc(N3CCC(OC4CCOCC4)CC3)nn2)n1 [CBK306296] | 87 |
| Cc1nn(Cc2ccccn2)c(=O)n2cccc12 [CBK283849] | 95.1 |
| Oc1cccc(-c2nccnc2N[C@@H]2CCN(Cc3ccccc3)C2)c1 [CBK037017] | 98.2 |
